The term MIC denotes the lowest concentration found to suppress growth.

Converted amounts (≈) assume the structure as drawn.

The test concerns S. aureus 29213. As to the kind of experiment: Bacterial growth minimal inhibitory concentrations (microdilution in cation-adjusted Mueller-Hinton Broth, CLSI M7-A7). The settings on record: Staphylococcus aureus, 29213, microdilution method. Type of test: cell-based. The method, then:
Bacterial Growth Minimal Inhibitory Concentrations: Minimal inhibitory concentrations (MICs; mg/l) were determined in cation-adjusted Mueller-Hinton Broth by a microdilution method following the description given in “Methods for Dilution Antimicrobial Susceptibility Tests for Bacteria that Grow Aerobically”, Approved standard, 7th ed., Clinical and Laboratory Standards Institute (CLSI) Document M7-A7, Wayne, Pa., USA, 2006. All Example compounds were tested against several Gram positive and Gram negative bacteria.
A general note: In broth dilution the organism is exposed to a series of concentrations in liquid medium.
Regarding `COc1ccc2ncc(F)c([C@@H](O)CN3CC[C@@H]4CN(c5ccc6c(c5)OCCO6)C(=O)O[C@H]4C3)c2n1` (mixture of isomers) [Example 13, (4aR*,8aR*)-3-(2,3-dihydro-benzo[1,4]dioxin-6-yl)-7-[(R)-2-(3-fluoro-6-methoxy-[1,5]naphthyridin-4-yl)-2-hydroxy-ethyl]-octahydro-pyrido[4,3-e][1,3]oxazin-2-one], the MIC was 0.063 µg/mL.
As for `COc1ccc2nccc(C(O)CN3CC[C@@H]4CN(c5ccc6c(c5)OCCO6)C(=O)O[C@H]4C3)c2n1` (mixture of isomers) [Example 3, (4aR*,8aR*)-3-(2,3-dihydro-benzo[1,4]dioxin-6-yl)-7-[(2RS)-2-hydroxy-2-(6-methoxy-[1,5]naphthyridin-4-yl)-ethyl]-octahydro-pyrido[4,3-e][1,3]oxazin-2-one], the figure is 0.125 µg/mL (≈ 0.254 µM); as for `COc1ccc2nccc(CCN3CC[C@@H]4CN(c5ccc6c(c5)OCCO6)C(=O)O[C@H]4C3)c2n1` (racemic) [Example 4, rac-(4aR*,8aR*)-3-(2,3-dihydro-benzo[1,4]dioxin-6-yl)-7-[2-(6-methoxy-[1,5]naphthyridin-4-yl)-ethyl]-octahydro-pyrido[4,3-e][1,3]oxazin-2-one], 0.063 µg/mL (≈ 0.132 µM).
As for `COc1ccc2ncc(F)c(CCN3CC[C@@H]4CN(c5ccc6c(c5)NC(=O)CO6)C(=O)O[C@H]4C3)c2n1` (racemic) [Example 5, rac-(4aR*,8aR*)-7-[2-(3-fluoro-6-methoxy-[1,5]naphthyridin-4-yl)-ethyl]3-(3-oxo-3,4-dihydro-2H-benzo[1,4]oxazin-6-yl)-octahydro-pyrido[4,3-e][1,3]oxazin-2-one], the figure is not above 0.031 µg/mL; as for `COc1ccc2ncc(F)c(C(O)CN3CC[C@@H]4CN(c5ccc6c(c5)OCCO6)C(=O)O[C@H]4C3)c2n1` (mixture of isomers) [Example 6, (4aR*,8aR*)-3-(2,3-dihydro-benzo[1,4]dioxin-6-yl)-7-[(2RS)-2-(3-fluoro-6-methoxy-[1,5]naphthyridin-4-yl)-2-hydroxy-ethyl]-octahydro-pyrido[4,3-e][1,3]oxazin-2-one], 0.063 µg/mL (≈ 0.123 µM).
Then `COc1ccc2ncc(F)c(CCN3CC[C@@H]4CN(c5ccc6c(c5)NC(=O)CS6)C(=O)O[C@H]4C3)c2n1` (racemic) [Example 7, rac-(4aR*,8aR*)-7-[2-(3-fluoro-6-methoxy-[1,5]naphthyridin-4-yl)-ethyl]-3-(3-oxo-3,4-dihydro-2H-benzo[1,4]thiazin-6-yl)-octahydro-pyrido[4,3-e][1,3]oxazin-2-one], with not above 0.031 µg/mL; and `COc1ccc2ccc(=O)n(CCN3CC[C@@H]4CN(c5ccc6c(c5)OCCO6)C(=O)O[C@H]4C3)c2c1` (racemic) [Example 8, rac-(4aR*,8aR*)-3-(2,3-dihydro-benzo[1,4]dioxin-6-yl)-7-[2-(7-methoxy-2-oxo-2H-quinolin-1-yl)-ethyl]-octahydro-pyrido[4,3-e][1,3]oxazin-2-one], with not above 0.031 µg/mL.
Take `COc1ccc2ncc(=O)n(CCN3CC[C@@H]4CN(c5ccc6c(c5)OCCO6)C(=O)O[C@H]4C3)c2c1` (racemic) [Example 9, rac-(4aR*,8aR*)-3-(2,3-dihydro-benzo[1,4]dioxin-6-yl)-7-[2-(7-methoxy-2-oxo-2H-quinoxalin-1-yl)-ethyl]-octahydro-pyrido[4,3-e][1,3]oxazin-2-one]: the MIC is not above 0.031 µg/mL.
`COc1ccc2ccc(=O)n(CCN3CC[C@@H]4CN(c5ccc6c(c5)OCCO6)C(=O)O[C@H]4C3)c2n1` (racemic) [Example 10, rac-(4aR*,8aR*)-3-(2,3-dihydro-benzo[1,4]dioxin-6-yl)-7-[2-(7-methoxy-2-oxo-2H-[1,8]naphthyridin-1-yl)-ethyl]-octahydro-pyrido[4,3-e][1,3]oxazin-2-one] registered an MIC not above 0.031 µg/mL.
The compound `COc1ccc2ncc(=O)n(CCN3CC[C@@H]4CN(c5ccc6c(c5)OCCO6)C(=O)O[C@H]4C3)c2n1` (racemic) [Example 11, rac-(4aR*,8aR*)-3-(2,3-dihydro-benzo[1,4]dioxin-6-yl)-7-[2-(6-methoxy-3-oxo-3H-pyrido[2,3-b]pyrazin-4-yl)-ethyl]-octahydro-pyrido[4,3-e][1,3]oxazin-2-one] displayed an MIC not above 0.031 µg/mL.
As for `COc1cnc2ccc(=O)n(CCN3CC[C@@H]4CN(c5ccc6c(c5)OCCO6)C(=O)O[C@H]4C3)c2n1` (racemic) [Example 12, rac-(4aR*,8aR*)-3-(2,3-dihydro-benzo[1,4]dioxin-6-yl)-7-[2-(3-methoxy-6-oxo-6H-pyrido[2,3-b]pyrazin-5-yl)-ethyl]-octahydro-pyrido[4,3-e][1,3]oxazin-2-one], the figure is not above 0.031 µg/mL.
Regarding `COc1ccc2ccc(F)c(C(O)CN3CC[C@@H]4CN(c5ccc6c(c5)OCCO6)C(=O)O[C@H]4C3)c2n1` (mixture of isomers) [Example 16, (4aR*,8aR*)-3-(2,3-dihydro-benzo[1,4]dioxin-6-yl)-7-[(2RS)-2-(7-fluoro-2-methoxy-quinolin-8-yl)-2-hydroxy-ethyl]-octahydro-pyrido[4,3-e][1,3]oxazin-2-one], the minimal inhibitory concentration (MIC) was 0.125 µg/mL (≈ 0.245 µM).
Then `COc1cnc2ccc(F)c(C(O)CN3CC[C@@H]4CN(c5ccc6c(c5)OCCO6)C(=O)O[C@H]4C3)c2n1` (mixture of isomers) [Example 17, (4aR*,8aR*)-3-(2,3-dihydro-benzo[1,4]dioxin-6-yl)-7-[(2RS)-2-(6-fluoro-3-methoxy-quinoxalin-5-yl)-2-hydroxy-ethyl]-octahydro-pyrido[4,3-e][1,3]oxazin-2-one], with 0.063 µg/mL (≈ 0.123 µM); and `COc1cnc2cccc(C(O)CN3CC[C@@H]4CN(c5ccc6c(c5)OCCO6)C(=O)O[C@H]4C3)c2n1` (mixture of isomers) [Example 18, (4aR*,8aR*)-3-(2,3-dihydro-benzo[1,4]dioxin-6-yl)-7-[(2RS)-2-hydroxy-2-(3-methoxy-quinoxalin-5-yl)-ethyl]-octahydro-pyrido[4,3-e][1,3]oxazin-2-one], with 0.063 µg/mL (≈ 0.128 µM); and `COc1ccc2ncc(F)c(CCN3CC[C@@H]4CN(c5ccc6c(n5)NC(=O)CO6)C(=O)O[C@H]4C3)c2n1` (racemic) [Example 19, rac-(4aR*,8aR*)-7-[2-(3-fluoro-6-methoxy-[1,5]naphthyridin-4-yl)-ethyl]3-(3-oxo-3,4-dihydro-2H-pyrido[3,2-b][1,4]oxazin-6-yl)-octahydro-pyrido[4,3-e][1,3]oxazin-2-one], with not above 0.031 µg/mL.
In the case of `COc1ccc2ncc(F)c(CCN3CC[C@@H]4CN(c5cnc6c(c5)OCCO6)C(=O)O[C@H]4C3)c2n1` (racemic) [Example 22, rac-(4aR*,8aR*)-3-(2,3-dihydro-[1,4]dioxino[2,3-b]pyridin-7-yl)-7-[2-(3-fluoro-6-methoxy-[1,5]naphthyridin-4-yl)-ethyl]-octahydro-pyrido[4,3-e][1,3]oxazin-2-one], the MIC was not above 0.031 µg/mL.
In the case of `COc1ccc2ncc(F)c(CCN3CC[C@@H]4CN(c5cc6c(nn5)OCCO6)C(=O)O[C@H]4C3)c2n1` (racemic) [Example 23, rac-(4aR*,8aR*)-3-(6,7-dihydro-[1,4]dioxino[2,3-c]pyridazin-3-yl)-7-[2-(3-fluoro-6-methoxy-[1,5]naphthyridin-4-yl)-ethyl]-octahydro-pyrido[4,3-e][1,3]oxazin-2-one], the MIC is not above 0.031 µg/mL.
As for `COc1ccc2ncc(F)c(CCN3CC[C@@H]4CN(c5cc6c(cn5)OCCO6)C(=O)O[C@H]4C3)c2n1` (racemic) [Example 24, rac-(4aR*,8aR*)-3-(2,3-dihydro-[1,4]dioxino[2,3-c]pyridin-7-yl)-7-[2-(3-fluoro-6-methoxy-[1,5]naphthyridin-4-yl)-ethyl]-octahydro-pyrido[4,3-e][1,3]oxazin-2-one], the figure is not above 0.031 µg/mL; as for `COc1ccc2ccc(=O)n(CCN3CC[C@@H]4CN(c5ccc6c(n5)NC(=O)CO6)C(=O)O[C@H]4C3)c2n1` (racemic) [Example 25, rac-(4aR*,8aR*)-7-[2-(7-methoxy-2-oxo-2H-[1,8]naphthyridin-1-yl)-ethyl]-3-(3-oxo-3,4-dihydro-2H-pyrido[3,2-b][1,4]oxazin-6-yl)-octahydro-pyrido[4,3-e][1,3]oxazin-2-one], not above 0.031 µg/mL; as for `COc1ccc2ccc(=O)n(CCN3CC[C@@H]4CN(c5ccc6c(n5)NC(=O)CS6)C(=O)O[C@H]4C3)c2n1` (racemic) [Example 26, rac-(4aR*,8aR*)-7-[2-(7-methoxy-2-oxo-2H-[1,8]naphthyridin-1-yl)-ethyl]-3-(3-oxo-3,4-dihydro-2H-pyrido[3,2-b][1,4]thiazin-6-yl)-octahydro-pyrido[4,3-e][1,3]oxazin-2-one], not above 0.031 µg/mL.
As to `COc1ccc2ncc(F)c(CCN3CC[C@@H]4CN(c5cc6c(nn5)OCCS6)C(=O)O[C@H]4C3)c2n1` (racemic) [Example 27, rac-(4aR*,8aR*)-3-(6,7-dihydro-8-oxa-5-thia-1,2-diaza-naphthalen-3-yl)-7-[2-(3-fluoro-6-methoxy-[1,5]naphthyridin-4-yl)-ethyl]-octahydro-pyrido[4,3-e][1,3]oxazin-2-one], the MIC is not above 0.031 µg/mL.
Compound `COc1ccc2ncc(=O)n(CCN3CC[C@@H]4CN(c5cc6c(nn5)OCCS6)C(=O)O[C@H]4C3)c2n1` (racemic) [Example 28, rac-(4aR*,8aR*)-3-(6,7-dihydro-8-oxa-5-thia-1,2-diaza-naphthalen-3-yl)-7-[2-(6-methoxy-3-oxo-3H-pyrido[2,3-b]pyrazin-4-yl)-ethyl]-octahydro-pyrido[4,3-e][1,3]oxazin-2-one] showed a minimum inhibitory concentration (MIC) not above 0.031 µg/mL.
Then `O=C1O[C@H]2CN(CC3Cn4c(=O)ccc5ncc(F)c3c54)CC[C@@H]2CN1c1ccc2c(c1)OCCO2` (mixture of isomers) [Example 30, (RS)-4-[(4aR*,8aR*)-3-(2,3-dihydro-benzo[1,4]dioxin-6-yl)-2-oxo-octahydro-pyrido[4,3-e][1,3]oxazin-7-ylmethyl]-3-fluoro-4,5-dihydro-pyrrolo[3,2,1-de][1,5]naphthyridin-7-one], with 0.5 µg/mL (≈ 1.02 µM).

(Values after US9029368B2, “3,7-disubstituted octahydro-2H-pyrido[4,3-E][1,3]oxazin-2-one antibiotics” (Actelion Pharmaceuticals Ltd., priority 2011, dated 2015).)
